Six compounds from US8987209B2, “N-carboxyalkyl-auristatin and the use thereof” (Seattle Genetics, Inc., priority 2010, dated 2015) can be followed below.

For data set [1], the system named is human renal carcinoma cell line 786-0. As to the kind of experiment: Anti-proliferative effect on renal cell carcinoma 786-0 cell line (MTT assay). The data set is classed as cell-based. The note with it: 786-0 cells, incubation 48 to 96 hours, serum free medium or 2% FCS. On the technique in general: Formazan colour is commonly taken as a measure of viable cells.

Data set [2] in a line: Cell permeability, flux assay using Caco-2 cells. The note with it: human, basal to apical, 2 hours incubation. It is filed as in vitro ADME. The protocol: (§1) B-5. Determination of Cell Permeability:
(§2) The cell permeability of a substance can be analyzed by means of in vitro tests in a flux assay using Caco-2-cells [M. D. Troutman and D. R. Thakker, Pharm. Res. 20 (8), 1210-1224 (2003)]. For this analysis the cells were cultured on 24 membrane filter plates for 15 to 16 days. In order to determine permeation the test substance in question was given either apical (A) to a HEPES buffer or basal (B) on the cells and incubated for 2 hours. The samples were withdrawn after 0 and 2 hours from the cis and trans compartments. The samples were separated by means of HPLC (Agilent 1200, Böblingen, Germany) using reverse-phase columns. The HPLC system was coupled to a triple quadropol mass spectrometer API 4000 (Applied Biosystems Applera, Darmstadt, Germany) via a turbo ion spray. The permeability was evaluated by means of the Papp value which was calculated with the help of the formula published by Schwab et al. [D. Schwab et al., J. Med. Chem. 46, 1716-1725 (2003)]. A substance was classified as active if the ratio of Papp (B-a) to Papp (A-B) was >2 or <0.5.
(§3) The permeability from B to A [Papp^(B-A)] is particularly important for toxophores which are being released intracellular: The lower the permeability the longer the residence time of the substance in the cell after intracellular release and, consequently, the more time available for interaction with the biochemical target (here: tubulin).
A general note: Caco-2 monolayers are a common model of the intestinal barrier.

Data set [3] relates to HT-29 wt cell line. As to the kind of experiment: Anti-proliferative effect on HT-29 wt cell line (MTT assay). To be noted: HT-29 wt cells, incubation 48 to 96 hours, medium with 10% FCS. It is filed as cell-based, human. The protocol: B-2. Determination of Anti-proliferative Effects of HT-29 wt Cell Line:
After 18 hours the seed medium was replaced by a fresh medium with 10% FCS. The treatment started with measuring out the respective test substance. The dose-response curves were determined of the investigative substances with a concentration of 10^−5 M to 10^−14 M (1:10 dilutions). Incubation times of between 48 hours and 96 hours were chosen. The proliferation was detected by means of the MTT assay (ATCC, Manassas, Va., USA, catalogue no. 30-1010K). After completion of selected incubation period the MTT reagent was incubated with the cells for 4 hours before lysis occurred over night by measuring out the detergent. The created stain was detected at 570 nm. The proliferation of the cells, which were treated identically to the other cells but without the test substance, was defined as the 100% value. The data obtained from this test represent triple determinations and at least two experiments had been carried out independently of each other.

Data set [4] concerns Caco-2-cells. The experiment in a line: Cell permeability, flux assay using Caco-2 cells. The data set is classed as in vitro ADME. The note with it: basal to apical, 2 hours incubation. How it is done: as §1, §2, §3

Square brackets hold non-standard residues; d marks the D form. Peptide text beside a SMILES is read from it. * marks the point of attachment. NMeVal(N-(CH2)3COOH) = CC(C)[C@@H](C(=O)*)N(C)CCCC(=O)O; Dolaproine = CO[C@@H]([C@@H]1CCCN1)[C@@H](C)C(=O)O; Dil = CC[C@H](C)[C@H](NC)[C@@H](CC(=O)O)OC; X5 = C[C@@H](N*)[C@@H](O)c1ccccc1; NMeV = CN[C@H](C(=O)O)C(C)C; OBn = c1ccc(CO*)cc1

As to `CC[C@H](C)[C@@H]([C@@H](CC(=O)N1CCC[C@H]1[C@H](OC)[C@@H](C)C(=O)N[C@@H](Cc1c[nH]c2ccccc12)C(=O)OCc1ccccc1)OC)N(C)C(=O)[C@@H](NC(=O)[C@H](C(C)C)N(C)CCCC(=O)O)C(C)C` [Example 8, N-(3-carboxypropyl)-N-methyl-L-valyl-N-[(3R,4S,5S)-1-{(2S)-2-[(1R,2R)-3-{[(2S)-1-(benzyloxy)-3-(1H-indol-3-yl)-1-oxopropane-2-yl]amino}-1-methoxy-2-methyl-3-oxopropyl]pyrrolidin-1-yl}-3-methoxy-5-methyl-1-oxoheptan-4-yl]-N-methyl-L-valinamide] ({NMeVal(N-(CH2)3COOH)}-V[Dil][Dolaproine]W-OBn), the IC50 in data set [1] (Homo sapiens) was determined as 5.2 nM; in data set [3] (Homo sapiens), 0.5 nM. For the same compound, the Papp B→A at 2 h in data set [2] was found to be 2.2 ×10⁻⁶ cm/s.
On the same counts, the results for `CCCNC(=O)[C@]1(NC(=O)[C@H](C)[C@@H](OC)[C@@H]2CCCN2C(=O)C[C@@H](OC)[C@H]([C@@H](C)CC)N(C)C(=O)[C@@H](NC(=O)[C@H](C(C)C)N(C)CCCC(=O)O)C(C)C)C[C@@H]1c1ccccc1` [Example 11, N-(3-carboxypropyl)-N-methyl-L-valyl-N-[(3R,4S,5S)-3-methoxy-1-{(2S)-2-[(1R,2R)-1-methoxy-2-methyl-3-oxo-3-{[(1S,2R)-2-phenyl-1-(propylcarbamoyl)cyclopropyl]amino}propyl]pyrrolidin-1-yl}-5-methyl-1-oxoheptan-4-yl]-N-methyl-L-valinamide] are 6.7 nM, 0.8 nM and 1.1 ×10⁻⁶ cm/s.
In the case of `CC[C@H](C)[C@@H]([C@@H](CC(=O)N1CCC[C@H]1[C@H](OC)[C@@H](C)C(=O)N[C@@H](Cc1ccccc1)C(N)=O)OC)N(C)C(=O)[C@@H](NC(=O)[C@H](C(C)C)N(C)CCCC(=O)O)C(C)C` [Example 13, N-(3-carboxypropyl)-N-methyl-L-valyl-N-[(3R,4S,5S)-1-{(2S)-2-[(1R,2R)-3-{[(2S)-1-amino-1-oxo-3-phenylpropan-2-yl]amino}-1-methoxy-2-methyl-3-oxopropyl]pyrrolidin-1-yl}-3-methoxy-5-methyl-1-oxoheptan-4-yl]-N-methyl-L-valinamide] ({NMeVal(N-(CH2)3COOH)}-V[Dil][Dolaproine]F-NH2), the half-inhibitory concentration (IC50) in data set [1] (Homo sapiens) worked out at 12.5 nM; in data set [3] (Homo sapiens) it was 1 nM. Moreover, the Papp B→A at 2 h in data set [2] was 1 ×10⁻⁶ cm/s.
`CC[C@H](C)[C@@H]([C@@H](CC(=O)N1CCC[C@H]1[C@H](OC)[C@@H](C)C(=O)N[C@@H](Cc1c[nH]c2ccccc12)C(N)=O)OC)N(C)C(=O)[C@@H](NC(=O)[C@H](C(C)C)N(C)CCCC(=O)O)C(C)C` [Example 18, N-(3-carboxypropyl)-N-methyl-L-valyl-N-[(3R,4S,5S)-1-{(2S)-2-[(1R,2R)-3-{[(2S)-1-amino-3-(1H-indol-3-yl)-1-oxopropane2-yl]amino}-1-methoxy-2-methyl-3-oxopropyl]pyrrolidin-1-yl}-3-methoxy-5-methyl-1-oxoheptan-4-yl]-N-methyl-L-valinamide] ({NMeVal(N-(CH2)3COOH)}-V[Dil][Dolaproine]W-NH2): the IC50 in data set [1] (Homo sapiens) came out at 173 nM; in data set [3] (Homo sapiens), 16 nM. Moreover, the Papp B→A at 2 h in data set [2] is 0.2 ×10⁻⁶ cm/s.
Take `CC[C@H](C)[C@@H]([C@@H](CC(=O)N1CCC[C@H]1[C@H](OC)[C@@H](C)C(=O)N[C@H](C)[C@@H](O)c1ccccc1)OC)N(C)C(=O)[C@@H](NC(=O)[C@@H](NC)C(C)C)C(C)C` [MMAE, monomethylauristatin E, reference compound] (H-[NMeV]V[Dil][Dolaproine]-X5): the “Papp (B-A)” value in data set [4] amounted to 8.9 ×10⁻⁶ cm/s.
With `CC[C@H](C)[C@@H]([C@@H](CC(=O)N1CCC[C@H]1[C@H](OC)[C@@H](C)C(=O)N[C@@H](Cc1ccccc1)C(=O)O)OC)N(C)C(=O)[C@@H](NC(=O)[C@@H](NC)C(C)C)C(C)C` [MMAF, Monomethylauristatin F, reference compound] (H-[NMeV]V[Dil][Dolaproine]F-OH), the IC50 in data set [1] worked out at 260 nM; in data set [3], 10 nM. In addition, the “Papp (B-A)” value in data set [4] came to 7.3 ×10⁻⁶ cm/s.

By IC50 is commonly meant the point on the concentration scale where inhibition reaches its midpoint. High values mean a need for much substance, low ones inhibition by little substance. One may read the Papp B→A as how fast a substance crosses the layer from the basolateral side.
